Results as given in the supplement of paper PMC6045584.
± gives the standard deviation of the averaged measurements.

Columns and labels:
[1] = compound: CCN(CC)CCCCNc1ncc2cc(-c3cc(OC)cc(OC)c3)c(NC(=O)NC(C)(C)C)nc2n1; assay: surviving fraction relative to DMSO-only wells; higher = less growth inhibition; conditions: exposure time: 5 days
Method in brief: (§1)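 Luminescence normalised to the median of DMSO-only wells defines surviving fraction, with viability read by CellTiter-Glo. Signal was recorded after 10 minutes at room temperature, once log-phase tumour cell lines seeded at 250–500 cells per well in 384-well plates had spent 24 hours settling and then five days under continuous exposure to inhibitors at 0.5, 1, 5, 10, 50, 100, 500 and 1000 nM.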

[2] = compound: COc1ccc(C2=N[C@@H](c3ccc(Cl)cc3)[C@@H](c3ccc(Cl)cc3)N2C(=O)N2CCNC(=O)C2)c(OC(C)C)c1 [NUTLIN3]; assay: as above; conditions: exposure time: 5 days
Method in brief: as §1

For LNCAP PROSTATE, which surviving fraction ([1]; 0.5 nM) is on record?
Its surviving fraction is 0.864 ± 0.066.

And the surviving fraction ([1]; 1 nM)?
Its surviving fraction is 0.878 ± 0.1.

And the surviving fraction ([1]; 5 nM)?
The surviving fraction was 0.7647 ± 0.0046.

And the surviving fraction ([1]; 10 nM)?
The surviving fraction was 0.922 ± 0.16.

What about the surviving fraction ([1]; 50 nM) of the same test system?
The surviving fraction was 0.898 ± 0.11.

What about the surviving fraction ([1]; 100 nM) of the same test system?
The surviving fraction was 0.934 ± 0.11.

And the surviving fraction ([1]; 500 nM)?
The surviving fraction was 0.933 ± 0.11.

What about the surviving fraction ([1]; 1000 nM) of the same test system?
Its surviving fraction is 1.03 ± 0.026.

And the surviving fraction ([2]; 0.5 nM)?
Its surviving fraction is 1.03 ± 0.034.

And the surviving fraction ([2]; 1 nM)?
The surviving fraction was 1.01 ± 0.078.

And the surviving fraction ([2]; 5 nM)?
Its surviving fraction is 0.955 ± 0.065.

And the surviving fraction ([2]; 10 nM)?
Its surviving fraction is 1 ± 0.086.

And the surviving fraction ([2]; 50 nM)?
Its surviving fraction is 0.956 ± 0.073.

And the surviving fraction ([2]; 100 nM)?
The surviving fraction was 0.803 ± 0.089.

What about the surviving fraction ([2]; 500 nM) of the same test system?
The surviving fraction was 0.491 ± 0.12.

And the surviving fraction ([2]; 1000 nM)?
The surviving fraction was 0.289 ± 0.011.

For MCF7 BREAST, which surviving fraction ([1]; 0.5 nM) is on record?
Its surviving fraction is 0.884 ± 0.024.

And the surviving fraction ([1]; 1 nM)?
Its surviving fraction is 0.868 ± 0.063.

What about the surviving fraction ([1]; 5 nM) of the same test system?
Its surviving fraction is 0.864 ± 0.03.

And the surviving fraction ([1]; 10 nM)?
The surviving fraction was 0.877 ± 0.068.

What about the surviving fraction ([1]; 50 nM) of the same test system?
Its surviving fraction is 0.878 ± 0.04.

What about the surviving fraction ([1]; 100 nM) of the same test system?
The surviving fraction was 0.861 ± 0.038.

What about the surviving fraction ([1]; 500 nM) of the same test system?
Its surviving fraction is 0.878 ± 0.042.

What about the surviving fraction ([1]; 1000 nM) of the same test system?
The surviving fraction was 0.908 ± 0.069.

What about the surviving fraction ([2]; 0.5 nM) of the same test system?
The surviving fraction was 0.881 ± 0.036.

And the surviving fraction ([2]; 1 nM)?
The surviving fraction was 0.841 ± 0.038.

And the surviving fraction ([2]; 5 nM)?
The surviving fraction was 0.819 ± 0.013.

And the surviving fraction ([2]; 10 nM)?
Its surviving fraction is 0.821 ± 0.038.

What about the surviving fraction ([2]; 50 nM) of the same test system?
The surviving fraction was 0.939 ± 0.021.

What about the surviving fraction ([2]; 100 nM) of the same test system?
The surviving fraction was 0.952 ± 0.051.

And the surviving fraction ([2]; 500 nM)?
Its surviving fraction is 0.865 ± 0.013.

And the surviving fraction ([2]; 1000 nM)?
Its surviving fraction is 0.85 ± 0.039.

How did the surviving fraction ([1]; 0.5 nM) turn out when MDAMB134 BREAST was run?
Its surviving fraction is 1 ± 0.079.

What about the surviving fraction ([1]; 1 nM) of the same test system?
The surviving fraction was 0.807 ± 0.069.

What about the surviving fraction ([1]; 5 nM) of the same test system?
The surviving fraction was 0.863 ± 0.03.

What about the surviving fraction ([1]; 10 nM) of the same test system?
The surviving fraction was 0.977 ± 0.23.

And the surviving fraction ([1]; 50 nM)?
Its surviving fraction is 0.872 ± 0.073.

What about the surviving fraction ([1]; 100 nM) of the same test system?
The surviving fraction was 0.902 ± 0.069.

And the surviving fraction ([1]; 500 nM)?
The surviving fraction was 0.829 ± 0.064.

What about the surviving fraction ([1]; 1000 nM) of the same test system?
Its surviving fraction is 0.873 ± 0.05.

And the surviving fraction ([2]; 0.5 nM)?
Its surviving fraction is 1.03 ± 0.011.

And the surviving fraction ([2]; 1 nM)?
The surviving fraction was 0.923 ± 0.0071.

What about the surviving fraction ([2]; 5 nM) of the same test system?
Its surviving fraction is 1.013 ± 0.0085.

And the surviving fraction ([2]; 10 nM)?
Its surviving fraction is 0.84 ± 0.11.

What about the surviving fraction ([2]; 50 nM) of the same test system?
Its surviving fraction is 1.125 ± 0.0021.

And the surviving fraction ([2]; 100 nM)?
Its surviving fraction is 1.07 ± 0.032.

What about the surviving fraction ([2]; 500 nM) of the same test system?
The surviving fraction was 1.021 ± 0.0042.

And the surviving fraction ([2]; 1000 nM)?
Its surviving fraction is 0.896 ± 0.028.

How did the surviving fraction ([1]; 0.5 nM) turn out when MDAMB157 BREAST was run?
Its surviving fraction is 0.85 ± 0.13.

And the surviving fraction ([1]; 1 nM)?
The surviving fraction was 0.935 ± 0.05.

And the surviving fraction ([1]; 5 nM)?
The surviving fraction was 0.898 ± 0.031.

What about the surviving fraction ([1]; 10 nM) of the same test system?
Its surviving fraction is 0.993 ± 0.026.

And the surviving fraction ([1]; 50 nM)?
The surviving fraction was 0.856 ± 0.03.

And the surviving fraction ([1]; 100 nM)?
Its surviving fraction is 0.68 ± 0.045.

And the surviving fraction ([1]; 500 nM)?
Its surviving fraction is 0.467 ± 0.033.

And the surviving fraction ([1]; 1000 nM)?
Its surviving fraction is 0.515 ± 0.0087.

What about the surviving fraction ([2]; 0.5 nM) of the same test system?
The surviving fraction was 0.957 ± 0.071.

What about the surviving fraction ([2]; 1 nM) of the same test system?
The surviving fraction was 0.961 ± 0.093.

What about the surviving fraction ([2]; 5 nM) of the same test system?
Its surviving fraction is 0.97 ± 0.11.

What about the surviving fraction ([2]; 10 nM) of the same test system?
The surviving fraction was 0.913 ± 0.12.

What about the surviving fraction ([2]; 50 nM) of the same test system?
Its surviving fraction is 1.02 ± 0.075.

And the surviving fraction ([2]; 100 nM)?
The surviving fraction was 1 ± 0.039.

What about the surviving fraction ([2]; 500 nM) of the same test system?
Its surviving fraction is 0.999 ± 0.051.

What about the surviving fraction ([2]; 1000 nM) of the same test system?
Its surviving fraction is 1.04 ± 0.074.

How did the surviving fraction ([1]; 0.5 nM) turn out when MDAMB231 BREAST was run?
Its surviving fraction is 0.974 ± 0.03.

What about the surviving fraction ([1]; 1 nM) of the same test system?
Its surviving fraction is 0.975 ± 0.026.

And the surviving fraction ([1]; 5 nM)?
The surviving fraction was 0.9813 ± 0.0094.

And the surviving fraction ([1]; 10 nM)?
Its surviving fraction is 1.01 ± 0.02.

And the surviving fraction ([1]; 50 nM)?
Its surviving fraction is 0.995 ± 0.026.

And the surviving fraction ([1]; 100 nM)?
Its surviving fraction is 1.01 ± 0.034.

What about the surviving fraction ([1]; 500 nM) of the same test system?
The surviving fraction was 1.01 ± 0.035.

And the surviving fraction ([1]; 1000 nM)?
Its surviving fraction is 0.983 ± 0.022.

And the surviving fraction ([2]; 0.5 nM)?
The surviving fraction was 0.97 ± 0.013.

What about the surviving fraction ([2]; 1 nM) of the same test system?
Its surviving fraction is 0.976 ± 0.028.

What about the surviving fraction ([2]; 5 nM) of the same test system?
The surviving fraction was 1.01 ± 0.017.

What about the surviving fraction ([2]; 10 nM) of the same test system?
The surviving fraction was 0.977 ± 0.019.

What about the surviving fraction ([2]; 50 nM) of the same test system?
Its surviving fraction is 1.06 ± 0.017.

And the surviving fraction ([2]; 100 nM)?
Its surviving fraction is 1.06 ± 0.02.

And the surviving fraction ([2]; 500 nM)?
The surviving fraction was 1 ± 0.026.

What about the surviving fraction ([2]; 1000 nM) of the same test system?
The surviving fraction was 0.995 ± 0.022.

MDAMB361 BREAST was tested. Which surviving fraction ([1]; 0.5 nM) did it give?
Its surviving fraction is 0.945 ± 0.025.

And the surviving fraction ([1]; 1 nM)?
Its surviving fraction is 0.917 ± 0.056.

And the surviving fraction ([1]; 5 nM)?
Its surviving fraction is 0.855 ± 0.092.

What about the surviving fraction ([1]; 10 nM) of the same test system?
Its surviving fraction is 0.839 ± 0.051.

What about the surviving fraction ([1]; 50 nM) of the same test system?
Its surviving fraction is 0.955 ± 0.097.

What about the surviving fraction ([1]; 100 nM) of the same test system?
Its surviving fraction is 0.846 ± 0.034.

What about the surviving fraction ([1]; 500 nM) of the same test system?
The surviving fraction was 0.937 ± 0.065.

What about the surviving fraction ([1]; 1000 nM) of the same test system?
The surviving fraction was 0.859 ± 0.025.

What about the surviving fraction ([2]; 0.5 nM) of the same test system?
Its surviving fraction is 0.854 ± 0.032.

What about the surviving fraction ([2]; 1 nM) of the same test system?
Its surviving fraction is 0.793 ± 0.036.

What about the surviving fraction ([2]; 5 nM) of the same test system?
Its surviving fraction is 0.809 ± 0.075.

And the surviving fraction ([2]; 10 nM)?
The surviving fraction was 0.844 ± 0.097.

What about the surviving fraction ([2]; 50 nM) of the same test system?
The surviving fraction was 0.887 ± 0.12.

And the surviving fraction ([2]; 100 nM)?
Its surviving fraction is 0.923 ± 0.063.

What about the surviving fraction ([2]; 500 nM) of the same test system?
The surviving fraction was 0.907 ± 0.067.

And the surviving fraction ([2]; 1000 nM)?
The surviving fraction was 0.825 ± 0.025.
